The values that follow come from patent US9360486B2, “Allergen fragments” (Biomay AG, priority 2007, dated 2016).

This assay deals with Amb a 1-specific T cell lines (TCL). In words: T cell epitope mapping of Amb a 1.3: proliferation (3H-thymidine uptake) of TCL stimulated with synthetic peptides. The class given is cell-based, human. As to conditions: for No. positive patients SI > 3 / No. positive patients SI > 5 / % (positive patients SI > 3) / % (positive patients SI > 5): TCL from 48 ragweed pollen-allergic patients, peptide 5 μg/ml; for No. positive patients SI > 3 / No. positive patients SI > 5: 3H-thymidine uptake after 48 hrs; for No. positive patients SI > 3 / % (positive patients SI > 3): stimulation index > 3; for No. positive patients SI > 5 / % (positive patients SI > 5): stimulation index > 5. An outline of the steps: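 Amb a 1-specific TCL from ragweed-allergic patients, raised with ragweed extract or rAmb a 1.3, stimulated 48 h with 121 overlapping 12-mer peptides plus one C-terminal 13-mer (9-residue overlap) at 5 μg/ml. Proliferation by 3H-thymidine uptake; SI against the mean cpm of the ten least stimulating peptides, epitope when SI ≥3.0.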

As for “QIKKNVLARTGT (Amb a 1 fragment) [Peptide 99]”, the “reactivity with T cells isolated from allergic individuals” value (shortened to “reactivity with T cells isolated”) is given as “reactivity with T cells”, the “No. positive patients SI > 3” value came out at 8, the “No. positive patients SI > 5” value amounted to 4 and the “% (positive patients SI > 3)” value stood at 16.7%. For the same sequence, the “% (positive patients SI > 5)” value was 8.3%.

Take “QIWIDHCSLSKS (Amb a 1 fragment) [Peptide 61]”: the “reactivity with T cells isolated” value is “reactivity with T cells”, the “No. positive patients SI > 3” value is listed as 29, the “No. positive patients SI > 5” value was 24 and the “% (positive patients SI > 3)” value is 60.4%. Also, the “% (positive patients SI > 5)” value is reported as 50.0%.

Take “QNRPLWIIFKND (Amb a 1 fragment) [Peptide 30]”: the “reactivity with T cells isolated” value is “reactivity with T cells”, the “No. positive patients SI > 3” value was 11, the “No. positive patients SI > 5” value is on record as 9 and the “% (positive patients SI > 3)” value is 22.9%. The “% (positive patients SI > 5)” value was found to be 18.8%.

“QNRPLWIIFKNDMVI (Amb a 1 fragment) [Peptide 30-31]”: the “reactivity with T cells isolated” value is listed as “reactivity with T cells”. The “T cell activating region recognized by % of patients” value (classes of prevalence referring to SI>5, 48 TCL) is “recognized by 20.8%”.

Turning to “RCRFGFFQVVNN (Amb a 1 fragment) [Peptide 85]”, the “No. positive patients SI > 3” value was 4, the “No. positive patients SI > 5” value is listed as 1, the “% (positive patients SI > 3)” value was found to be 8.3% and the “% (positive patients SI > 5)” value was 2.1%.

Take “RMPRCRFGFFQV (Amb a 1 fragment) [Peptide 84]”: the “No. positive patients SI > 3” value stood at 3, the “No. positive patients SI > 5” value is on record as 1, the “% (positive patients SI > 3)” value was 6.3% and the “% (positive patients SI > 5)” value is on record as 2.1%.

As to “RQASDGDTINVA (Amb a 1 fragment) [Peptide 56]”, the “No. positive patients SI > 3” value was 1, the “No. positive patients SI > 5” value is 1, the “% (positive patients SI > 3)” value stood at 2.1% and the “% (positive patients SI > 5)” value was 2.1%.

Turning to “RSLQACEAYNII (Amb a 1 fragment) [Peptide 6]”, the “No. positive patients SI > 3” value was found to be 1, the “No. positive patients SI > 5” value was 0, the “% (positive patients SI > 3)” value is given as 2.1% and the “% (positive patients SI > 5)” value was found to be 0.0%.

As to “RWGTYAIGGSSA (Amb a 1 fragment) [Peptide 90]”, the “reactivity with T cells isolated” value is given as “reactivity with T cells”, the “No. positive patients SI > 3” value is 5, the “No. positive patients SI > 5” value is 3 and the “% (positive patients SI > 3)” value turned out to be 10.4%. Besides, the “% (positive patients SI > 5)” value is 6.3%.

On to “SAEGVGEILPSV (Amb a 1 fragment) [Peptide 1]”, for which the “No. positive patients SI > 3” value is 2, the “No. positive patients SI > 5” value amounted to 0, the “% (positive patients SI > 3)” value was found to be 4.2% and the “% (positive patients SI > 5)” value came to 0.0%.

As for “SAGMIPAEPGEA (Amb a 1 fragment) [Peptide 115]”, the “reactivity with T cells isolated” value was “reactivity with T cells”, the “No. positive patients SI > 3” value was 18, the “No. positive patients SI > 5” value was 17 and the “% (positive patients SI > 3)” value is 37.5%. Moreover, the “% (positive patients SI > 5)” value is 35.4%.

With “SAGVLSCRPGAPC (Amb a 1 fragment) [Peptide 121]”, the “reactivity with T cells isolated” value is “reactivity with T cells”, the “No. positive patients SI > 3” value stood at 6, the “No. positive patients SI > 5” value was 2 and the “% (positive patients SI > 3)” value is 12.5%. Further, the “% (positive patients SI > 5)” value is listed as 4.2%.

Consider “SDGDTINVAGSS (Amb a 1 fragment) [Peptide 57]”, for which the “No. positive patients SI > 3” value is on record as 0, the “No. positive patients SI > 5” value came to 0, the “% (positive patients SI > 3)” value is reported as 0.0% and the “% (positive patients SI > 5)” value is given as 0.0%.
